Patent US12060330B2, “Therapeutic indazoles” (priority 2017, dated 2024)
In brackets after ≈: the same amount, converted by molar mass.

Experiments:
KasA = KasA (Mycobacterium tuberculosis, UniProt P9WQD9); experiment: Microscale thermophoresis (MST) binding assay; design: species or system M. tuberculosis; conditions: for EC50: read-out: EC50 (KasA interaction)
[1] = system: mycolic acid biosynthesis; assay type: cell-based, M. tuberculosis
M. abscessus = experiment: MIC against nontuberculous mycobacteria
[2] = Dose escalation and drug tolerability in mice; assay type: in vivo
Procedure: All animal experiments were conducted in compliance with and approved by the Institutional Animal Care and Use Committee of the New Jersey Medical School, Rutgers University.
The mice were weighed and observed daily. Their behavior, drinking and feeding patterns, and feces were monitored and recorded. Upon necropsy, liver, gall bladder, kidney and spleen pathology were observed as well.

M. marinum = experiment: MIC against nontuberculous mycobacteria
M. avium = experiment: MIC against nontuberculous mycobacteria
M. tuberculosis H37Rv = experiment: RNAseq transcriptional profiling; assay type: cell-based; conditions: single drug, 10× MIC, 4 h
[3] = Mouse pharmacokinetic studies (plasma, LC-MS/MS); assay type: in vivo; conditions: mice
Procedure: DG1167 levels in plasma were measured by LC-MS/MS in electrospray positive-ionization mode (ESI+) on a Sciex Qtrap 4000 triple-quadrupole mass combined with an Agilent 1260 HPLC using Analyst software. […] Multiple-reaction monitoring (MRM) of parent/daughter transitions in electrospray positive-ionization mode (ESI+) was used to quantify DG167. […] Extracts were vortexed for 5 minutes and centrifuged at 4000 RPM for 5 minutes. The supernatants were analyzed by LC-MS. Verapamil IS was sourced from Sigma-Aldrich.

Caco-2 permeability = conditions: human
CYP enzymes = experiment: Cytochrome P450 (CYP) inhibition; conditions: CYP enzymes except CYP2C19
M. tuberculosis [4] = experiment: Killing studies using CFU measurements; assay type: cell-based
M. smegmatis = experiment: MIC against nontuberculous mycobacteria
CYP2C19 = CYP2C19 (Homo sapiens, UniProt P33261); experiment: Cytochrome P450 (CYP) inhibition; assay type: in vitro ADME
CYP2C19, sequence (P33261 whole entry, species assumed): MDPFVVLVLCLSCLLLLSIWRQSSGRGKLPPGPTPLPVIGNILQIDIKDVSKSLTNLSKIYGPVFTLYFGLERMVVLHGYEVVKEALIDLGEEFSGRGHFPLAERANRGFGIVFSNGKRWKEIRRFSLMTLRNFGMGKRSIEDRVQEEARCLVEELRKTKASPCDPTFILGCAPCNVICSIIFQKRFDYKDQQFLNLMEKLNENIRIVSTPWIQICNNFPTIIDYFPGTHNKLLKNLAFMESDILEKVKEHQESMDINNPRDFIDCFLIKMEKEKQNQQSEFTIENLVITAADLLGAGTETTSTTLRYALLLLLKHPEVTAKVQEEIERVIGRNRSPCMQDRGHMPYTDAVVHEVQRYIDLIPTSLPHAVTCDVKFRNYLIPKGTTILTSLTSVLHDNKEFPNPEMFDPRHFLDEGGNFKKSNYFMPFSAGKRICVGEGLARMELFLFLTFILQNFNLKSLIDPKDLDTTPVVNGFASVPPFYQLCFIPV

M. fortuitum = experiment: MIC against nontuberculous mycobacteria
Kinetic solubility = conditions: pH 7.4 phosphate-buffered saline (PBS)
[5] = Mouse liver microsome (MLM) stability
M. tuberculosis [6] = experiment: microbe, parasite or virus in culture; assay type: cell-based; conditions: for whole-cell activity (in words): SAR relative to DG167; for increase in potency over DG167: relative to DG167
M. tuberculosis [7] = experiment: Lung CFU in infected mice (FIG. 10, PMID: 25421483); assay type: in vivo; conditions: compared to INH and vehicle only
M. tuberculosis [8] = conditions: cited from earlier work

KasA, sequence (P9WQD9 whole entry): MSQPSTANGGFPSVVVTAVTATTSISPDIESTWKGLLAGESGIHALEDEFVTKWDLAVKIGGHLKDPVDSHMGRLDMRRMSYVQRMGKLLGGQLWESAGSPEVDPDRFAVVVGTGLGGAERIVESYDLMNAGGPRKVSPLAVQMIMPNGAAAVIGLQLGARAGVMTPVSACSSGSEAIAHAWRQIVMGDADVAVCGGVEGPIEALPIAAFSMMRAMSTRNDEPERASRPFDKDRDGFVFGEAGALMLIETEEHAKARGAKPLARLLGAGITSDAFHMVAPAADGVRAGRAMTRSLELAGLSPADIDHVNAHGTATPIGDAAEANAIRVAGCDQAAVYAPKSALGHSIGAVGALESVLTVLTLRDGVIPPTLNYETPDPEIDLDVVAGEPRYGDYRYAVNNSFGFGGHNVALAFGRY

## CCCCS(=O)(=O)Nc1ccc2cn[nH]c2c1 [Example 1, N-(1H-indazol-6-yl)butane-1-sulfonamide]
KasA
  EC50: 1740 ± 221 nM
[1]
  inhibition of mycolic acid biosynthesis: did not show any inhibition

## CCCCS(=O)(=O)Nc1ccc2cnn(C)c2c1 [DG167, N-(1-methyl-1H-indazol-6-yl)butane-1-sulfonamide]
KasA
  EC50: 131 ± 18.2 nM
M. abscessus
  MIC: > 100 µM
[2]; 50 and 100 mg/kg, monitored 8 hours
  tolerability, dose escalation: well tolerated
[2]; 5 d, DG167 50 or 100 mg/kg, or DG167 100 mg/kg with INH 25 mg/kg
  dose tolerability for 5 d: did not show any behavioral changes or weight loss
[2]; higher doses (250, 500 mg/kg)
  tolerability, dose escalation: heavy breathing, hunched posture and decreased activity
M. marinum
  MIC: > 100 µM
M. avium
  MIC: > 100 µM
[1]
  accumulation of FAS-I products: caused accumulation of C16-C26 short-chain fatty-acids
M. tuberculosis H37Rv
  gene expression change (in words): strongly induced expression of kasA, kasB, acpM genes, the iniBAC operon
[3]; IV 5 mg/kg
  half-life (t1/2): 19.8 min
[3]; IV 5 mg/kg, 5% DMA/40% PEG300/55% D5W
  AUC [0-t]: 1751.25 ng·h/mL
[3]; PO 25 mg/kg, 0.5% CMC/0.5% Tween 80, plasma
  AUC [0-t]: 8083.96 ng·h/mL
[3]; single oral dose 25 mg/kg
  time plasma levels maintained above the MIC: over 4 hours
[3]; single oral dose 25 mg/kg, plasma
  AUC [0-t]: 8083.96 h*ng/m
Caco-2 permeability
  Papp A→B: 71.8 ×10⁻⁶ cm/s
  Papp B→A: 45.6 ×10⁻⁶ cm/s
CYP enzymes
  CYP inhibition (in words): did not significantly inhibit
M. tuberculosis [4]; 10× or 20× MIC, over seven days
  reduction of viable colony-forming units (CFU): 2 log 10
M. smegmatis
  MIC: > 100 µM
CYP2C19
  IC50: 12000 nM
M. fortuitum
  MIC: > 100 µM
Kinetic solubility
  kinetic solubility: 324 µM (≈ 86.6 µg/mL)
[5]; in the absence of NADPH
  MLM t1/2: > 300 min
[5]; mouse liver microsomes
  MLM t1/2: 10.1 min

## CCCCS(=O)(=O)Nc1ccc2[nH]nc(C)c2c1 [Example 41, N-(3-methyl-1H-indazol-5-yl)butane-1-sulfonamide]
KasA
  Kd: 46.5 ± 18.7 nM
M. tuberculosis [6]
  improvement over DG167 in MIC / whole-cell activity: 2 ×

## NNC(=O)c1ccncc1 [INH, isoniazid, reference compound]
M. tuberculosis H37Rv
  gene expression change (in words): strongly induced expression of kasA, kasB, acpM genes, the iniBAC operon
M. tuberculosis [4]; 10× MIC of each drug
  killing pattern (in words): rapid reduction of viable CFU followed by rapid re-growth

## CCCCCS(=O)(=O)Nc1ccc2cnn(C)c2c1 [Example 11, N-(1-methyl-1H-indazol-6-yl)pentane-1-sulfonamide]
M. tuberculosis [6]
  whole-cell activity (in words): increased the activity over the parent by twofold
  increase in potency over DG167: 2 fold

## Cc1n[nH]c2ccc(NS(=O)(=O)CCCCF)cc12 [Example 43, 4-Fluoro-N-(3-methyl-1H-indazol-5-yl)butane-1-sulfonamide]
M. tuberculosis [7]
  M. tuberculosis colony-forming units in the lungs: reduction of M. tuberculosis colony-forming units in the lungs

## C=C/C(C)=C/[C@@]1(C)SC(=O)C(C)=C1O [thiolactomycin]
M. tuberculosis [8]
  whole-cell activity in M. tuberculosis: 142 µM

## [2H]C([2H])([2H])n1ncc2ccc(NS(=O)(=O)CCCC)cc21 [Example 29, N-(1-(methyl-d3)-1H-indazol-6-yl)butane-1-sulfonamide]
[5]; mouse liver microsomes
  MLM t1/2: 16.8 min

## CCCCS(=O)(=O)N(C)c1ccc2cnn(C)c2c1 [Example 32, N-methyl-N-(1-methyl-1H-indazol-6-yl)butane-1-sulfonamide]
M. tuberculosis [6]
  whole-cell activity (in words): loss of activity

## CC12C[C@@]34C=CC(=O)[C@@](C)(CCC(=O)Nc5c(O)ccc(C(=O)O)c5O)C3[C@H](CC1C4)O2 (stereo partly drawn) [platensimycin]
M. tuberculosis [8]
  whole-cell activity in M. tuberculosis: 27 µM

## CCCCNC(=S)Nc1ccc2cnn(C)c2c1 [Example 33, 1-Butyl-3-(1-methyl-1H-indazol-6-yl)thiourea]
M. tuberculosis [6]; Mycobacterium tuberculosis, whole-cell
  MIC: 3.1 µM (≈ 0.813 µg/mL)
M. tuberculosis [6]
  whole-cell activity (in words): loss of activity

## [2H]C([2H])([2H])n1ncc2ccc(NS(=O)(=O)CCCCC)cc21 [Example 30, N-(1-(methyl-d3)-1H-indazol-6-yl)pentane-1-sulfonamide]
M. tuberculosis [6]
  whole-cell activity (in words): increased the activity over the parent by twofold
  increase in potency over DG167: 2 fold

## CCCCCCS(=O)(=O)Nc1ccc2cnn(C)c2c1 [Example 12, N-(1-methyl-1H-Indazol-6-yl)hexane-1-sulfonamide]
M. tuberculosis [6]
  whole-cell activity (in words): inactive
